From ChEMBL document CHEMBL5154672, “Design and synthesis of HDAC inhibitors to enhance the therapeutic effect of diffuse large B-cell lymphoma by improving metabolic stability and pharmacokinetic characteristics” (Eur J Med Chem, 2022)

What was measured:
[1] = Toxicity against CB.17 SCID mouse xenografted with human TMD8 cells assessed as body weight loss at 50 to 100 mg/kg/day, po for 21 consecutive days; assay type: organism-based; settings: in vivo, 504 h, dose 50-100 mg/kg/day, time 21 day
[2] = AUC (0 to infinity) in ICR mouse at 2 mg/kg, iv measured upto 24 hrs by LC-MS/MS analysis; assay type: ADME, organism-based; parameters: time < 24 hrs, dose 2 mg/kg, route iv; settings: in vivo
[3] = Aqueous solubility of the compound; assay type: physicochemical; settings: aqueous medium
TMD8 = test: In vivo antitumor activity against TMD8 cells xenografted in CB.17 SCID mouse assessed as tumor growth inhibition at 100 mg/kg/day, po for 21 consecutive days measured on day 21 by Vernier caliper relative to control; assay type: functional, Homo sapiens; settings: TMD8, 504 h, time 21 day, read-out: TGI
[4] = Cmax in ICR mouse at 10 mg/kg, po measured upto 24 hrs by LC-MS/MS analysis; assay type: ADME, organism-based; parameters: dose 10 mg/kg, time < 24 hrs, route po; settings: in vivo
[5] = Cmax in ICR mouse at 100 mg/kg, po measured upto 24 hrs by LC-MS/MS analysis; assay type: ADME, organism-based; parameters: time < 24 hrs, dose 100 mg/kg, route po; settings: in vivo
[6] = Half life in ICR mouse at 2 mg/kg, iv measured upto 24 hrs by LC-MS/MS analysis; assay type: ADME, organism-based; settings: in vivo
[7] = Half life in ICR mouse at 10 mg/kg, po measured upto 24 hrs by LC-MS/MS analysis; assay type: ADME, organism-based; settings: in vivo
[8] = Half life in ICR mouse at 100 mg/kg, po measured upto 24 hrs by LC-MS/MS analysis; assay type: ADME, organism-based; settings: in vivo
[9] = AUC (0 to infinity) in ICR mouse at 10 mg/kg, po measured upto 24 hrs by LC-MS/MS analysis; assay type: ADME, organism-based; parameters: time < 24 hrs, dose 10 mg/kg, route po; settings: in vivo
[10] = AUC (0 to infinity) in ICR mouse at 100 mg/kg, po measured upto 24 hrs by LC-MS/MS analysis; assay type: ADME, organism-based; parameters: dose 100 mg/kg, time < 24 hrs, route po; settings: in vivo
[11] = MRT in ICR mouse at 2 mg/kg, iv measured upto 24 hrs by LC-MS/MS analysis; assay type: ADME, organism-based; settings: in vivo
[12] = MRT in ICR mouse at 10 mg/kg, po measured upto 24 hrs by LC-MS/MS analysis; assay type: ADME, organism-based; settings: in vivo
[13] = MRT in ICR mouse at 100 mg/kg, po measured upto 24 hrs by LC-MS/MS analysis; assay type: ADME, organism-based; settings: in vivo
[14] = Clearance in ICR mouse at 2 mg/kg, iv measured upto 24 hrs by LC-MS/MS analysis; assay type: ADME, organism-based; settings: in vivo
[15] = Oral bioavailability in ICR mouse at 10 mg/kg measured upto 24 hrs by LC-MS/MS analysis; assay type: ADME, organism-based; settings: in vivo
[16] = Oral bioavailability in ICR mouse at 100 mg/kg measured upto 24 hrs by LC-MS/MS analysis; assay type: ADME, organism-based; settings: in vivo
[17] = Cmax in monkey plasma at 10 mg/kg, po measured upto 24 hrs by LC-MS/MS analysis; assay type: ADME, organism-based, Macaca fascicularis; parameters: time < 24 hrs, dose 10 mg/kg, route po; settings: cynomolgus monkey
[18] = Cmax in dog plasma at 10 mg/kg, po measured upto 24 hrs by LC-MS/MS analysis; assay type: ADME, organism-based, Canis lupus familiaris; parameters: time < 24 hrs, dose 10 mg/kg, route po
[19] = Half life in monkey plasma at 1 mg/kg, iv measured upto 24 hrs by LC-MS/MS analysis; assay type: ADME, organism-based, Macaca fascicularis; settings: cynomolgus monkey
[20] = Half life in monkey plasma at 10 mg/kg, po measured upto 24 hrs by LC-MS/MS analysis; assay type: ADME, organism-based, Macaca fascicularis; settings: cynomolgus monkey
[21] = Half life in dog plasma at 1 mg/kg, iv measured upto 24 hrs by LC-MS/MS analysis; assay type: ADME, organism-based, Canis lupus familiaris
[22] = Half life in dog plasma at 10 mg/kg, po measured upto 24 hrs by LC-MS/MS analysis; assay type: ADME, organism-based, Canis lupus familiaris
[23] = AUC (0 to infinity) in monkey plasma at 1 mg/kg, iv measured upto 24 hrs by LC-MS/MS analysis; assay type: ADME, organism-based, Macaca fascicularis; parameters: time < 24 hrs, dose 1 mg/kg, route iv; settings: cynomolgus monkey
[24] = AUC (0 to infinity) in monkey plasma at 10 mg/kg, po measured upto 24 hrs by LC-MS/MS analysis; assay type: ADME, organism-based, Macaca fascicularis; parameters: time < 24 hrs, dose 10 mg/kg, route po; settings: cynomolgus monkey
[25] = AUC (0 to infinity) in dog plasma at 1 mg/kg, iv measured upto 24 hrs by LC-MS/MS analysis; assay type: ADME, organism-based, Canis lupus familiaris; parameters: dose 1 mg/kg, time < 24 hrs, route iv
[26] = AUC (0 to infinity) in dog plasma at 10 mg/kg, po measured upto 24 hrs by LC-MS/MS analysis; assay type: ADME, organism-based, Canis lupus familiaris; parameters: time < 24 hrs, dose 10 mg/kg, route po
[27] = MRT in monkey plasma at 1 mg/kg, iv measured upto 24 hrs by LC-MS/MS analysis; assay type: ADME, organism-based, Macaca fascicularis; settings: cynomolgus monkey
[28] = MRT in monkey plasma at 10 mg/kg, po measured upto 24 hrs by LC-MS/MS analysis; assay type: ADME, organism-based, Macaca fascicularis; settings: cynomolgus monkey
[29] = MRT in dog plasma at 1 mg/kg, iv measured upto 24 hrs by LC-MS/MS analysis; assay type: ADME, organism-based, Canis lupus familiaris
[30] = MRT in dog plasma at 10 mg/kg, po measured upto 24 hrs by LC-MS/MS analysis; assay type: ADME, organism-based, Canis lupus familiaris
[31] = Clearance in monkey plasma at 1 mg/kg, iv measured upto 24 hrs by LC-MS/MS analysis; assay type: ADME, organism-based, Macaca fascicularis; settings: cynomolgus monkey, in vivo
[32] = Clearance in dog plasma at 1 mg/kg, iv measured upto 24 hrs by LC-MS/MS analysis; assay type: ADME, organism-based, Canis lupus familiaris; settings: in vivo
[33] = Volume of distribution at steady state in monkey plasma at 1 mg/kg, iv measured upto 24 hrs by LC-MS/MS analysis; assay type: ADME, organism-based, Macaca fascicularis; settings: cynomolgus monkey, read-out: Vdss
[34] = Volume of distribution at steady state in dog plasma at 1 mg/kg, iv measured upto 24 hrs by LC-MS/MS analysis; assay type: ADME, organism-based, Canis lupus familiaris; settings: read-out: Vdss
[35] = Oral bioavailability in monkey plasma at 10 mg/kg measured upto 24 hrs by LC-MS/MS analysis; assay type: ADME, organism-based, Macaca fascicularis; settings: cynomolgus monkey
[36] = Oral bioavailability in dog plasma at 10 mg/kg measured upto 24 hrs by LC-MS/MS analysis; assay type: ADME, organism-based, Canis lupus familiaris
[37] = Toxicity against CB.17 SCID mouse xenografted with human TMD8 cells assessed as effect on heart at 100 mg/kg/day, po for 21 consecutive days by H and E staining method; assay type: organism-based; settings: in vivo, 504 h, time 21 day
[38] = Toxicity against CB.17 SCID mouse xenografted with human TMD8 cells assessed as effect on liver at 100 mg/kg/day, po for 21 consecutive days by H and E staining method; assay type: organism-based; settings: in vivo, 504 h, time 21 day
[39] = Toxicity against CB.17 SCID mouse xenografted with human TMD8 cells assessed as effect on lung at 100 mg/kg/day, po for 21 consecutive days by H and E staining method; assay type: organism-based; settings: in vivo, 504 h, time 21 day
[40] = Toxicity against CB.17 SCID mouse xenografted with human TMD8 cells assessed as effect on kidney at 100 mg/kg/day, po for 21 consecutive days by H and E staining method; assay type: organism-based; settings: in vivo, 504 h, time 21 day
[41] = Toxicity against CB.17 SCID mouse xenografted with human TMD8 cells assessed as effect on spleen at 100 mg/kg/day, po for 21 consecutive days by H and E staining method; assay type: organism-based; settings: in vivo, 504 h, time 21 day

AUC(0-inf) [2]: 1250 ng·h/mL | solubility [3]: > 100 mg/mL | Cmax [4]: 3960 ng/mL | Cmax [5]: 58300 ng/mL | half-life [6]: 0.427 h | half-life [7]: 1.31 h | half-life [8]: 1.63 h | AUC(0-inf) [9]: 2670 ng·h/mL | AUC(0-inf) [10]: 57200 ng·h/mL | MRT [11]: 0.402 h | MRT [12]: 0.919 h | MRT [13]: 0.897 h | clearance [14]: 27.2 mL/min/kg | bioavailability [15]: 45.6% | bioavailability [16]: 91.8% | Cmax [17]: 8520 ng/mL | Cmax [18]: 4740 ng/mL | half-life [19]: 4.31 h | half-life [20]: 9.14 h | half-life [21]: 1.65 h | half-life [22]: 1.51 h | AUC(0-inf) [23]: 15700 ng·h/mL | AUC(0-inf) [24]: 53200 ng·h/mL | AUC(0-inf) [25]: 2550 ng·h/mL | AUC(0-inf) [26]: 15100 ng·h/mL | MRT [27]: 3.41 h | MRT [28]: 8.28 h | MRT [29]: 2.26 h | MRT [30]: 2.71 h | clearance [31]: 1.35 mL/min/kg | clearance [32]: 6.72 mL/min/kg | Vd [33]: 0.34 L/kg | Vd [34]: 0.55 L/kg | bioavailability [35]: 27.6% | bioavailability [36]: 58.9%
Structure (SMILES): Cl.Nc1ccccc1NC(=O)c1ccc(CN2CCC/C(=C\c3ccccn3)C2=O)cc1
Activity [1]: Non-Toxic | inhibition in vivo at 100 mg/kg/day (TMD8): 77% | Activity [37]: Non-Toxic | Activity [38]: Non-Toxic | Activity [39]: Non-Toxic | Activity [40]: Non-Toxic | Activity [41]: Non-Toxic
